Reference: patent publication US20250388605A1, “HETEROBIFUNCTIONAL COMPOUNDS AND METHODS OF TREATING DISEASE” (Halda Therapeutics OpCo, Inc., priority 2022, published 2025)

How the values were obtained:
BRD4-BD1 = biological target: T1, BRD4-BD1 (Homo sapiens, UniProt O60885); test: Binding affinity to BRD4-BD1 (bromoKdELECT assay); settings: 11-point 3-fold dilution series
T1 construct: made in house; host or cells: T7 phage grown in an E. coli host derived from the BL21 strain
Procedure: (§1) Compounds were tested using a bromoKdELECT assay. T7 phage strains displaying bromodomains were grown in parallel in 24-well blocks in an E. coli host derived from the BL21 strain. E. coli were grown to log-phase and infected with T7 phage from a frozen stock (multiplicity of infection=0.4) and incubated with shaking at 32° C. until lysis (90-150 minutes). The lysates were centrifuged (5,000×g) and filtered ([…]) to remove cell debris. Streptavidin-coated magnetic beads were treated with biotinylated small molecule or acetylated peptide ligands for 30 minutes at room temperature to generate affinity resins for bromodomain assays. The liganded beads were blocked with excess biotin and washed with blocking buffer (SeaBlock (Pierce), 1% BSA, 0.05% Tween 20, 1 mM DTT) to remove unbound ligand and to reduce nonspecific phage binding. Binding reactions were assembled by combining bromodomains, liganded affinity beads, and test compounds in 1× binding buffer (17% SeaBlock, 0.33×PBS, 0.04% Tween 20, 0.02% BSA, 0.004% Sodium azide, 7.4 mM DTT). Test compounds were prepared as 1000× stocks in 100% DMSO. Kds were determined using an 11-point 3-fold compound dilution series with one DMSO control point. All compounds for Kd measurements are distributed by acoustic transfer (non-contact dispensing) in 100% DMSO. The compounds were then diluted directly into the assays such that the final concentration of DMSO was 0.09%. All reactions performed in polypropylene 384-well plates. Each was a final volume of 0.02 ml. The assay plates were incubated at room temperature with shaking for 1 hour and the affinity beads were washed with wash buffer (1×PBS, 0.05% Tween 20). The beads were then resuspended in elution buffer (1×PBS, 0.05% Tween 20, 2 M non-biotinylated affinity ligand) and incubated at room temperature with shaking for 30 minutes. The bromodomain concentration in the eluates was measured by qPCR.

VCaP cells = test: Cellular growth inhibition assay for VCaP cells, CellTiter-Glo; format: cell-based, human; settings: 72 hours
Summary of the method: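 GI50 values come from four-parameter curve fits of luminescence data normalized to a zero baseline. Compound, in medium with 0.5% DMSO, was added one day after plating and left for 72 h before CellTiter-Glo 2.0 addition.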

BRD4-BD2 = biological target: T2, BRD4-BD2 (Homo sapiens, UniProt O60885); test: Binding affinity to BRD4-BD2 (bromoKdELECT assay); settings: 11-point 3-fold dilution series
T2 construct: made in house; host or cells: T7 phage grown in an E. coli host derived from the BL21 strain
Procedure: as §1, with “2 μM” for “2 M”

| Compound | Kd (BRD4-BD1) [nM] | GI50 (VCaP cells; Homo sapiens) [nM] | Kd (BRD4-BD2) [nM] | GI50 (VCaP cells) [nM] |
| --- | --- | --- | --- | --- |
| CCS(=O)(=O)Cc1ccc(Oc2cccc(OCCOC3CCN(c4ncc(C(=O)N[C@H]5C(C)(C)[C@H](Oc6ccc(C#N)c(Cl)c6)C5(C)C)cn4)CC3)c2)c(-c2cn(C)c(=O)c3[nH]ccc23)c1 [Compound I-54, N-((1r, 3r)-3-(3-chloro-4-cyanophenoxy)-2,2,4,4-tetramethylcyclobutyl)-2-(4-(2-(3-(4-((ethylsulfonyl)methyl)-2-(6-methyl-7-oxo-6,7-dihydro-1H-pyrrolo[2,3-c]pyridin-4-yl)phenoxy)phenoxy)ethoxy)piperidin-1-yl)pyrimidine-5-carboxamide] | > 2500 | < 500 | 50 to 500 | – |
| Cn1cc(-c2cc(C(C)(C)O)ccc2Oc2cccc(N3CC(CC4CCN(c5ncc(C(=O)N[C@H]6C(C)(C)[C@H](Oc7ccc(C#N)c(Cl)c7)C6(C)C)cn5)CC4)C3)c2F)c2cc[nH]c2c1=O [Compound I-196] | 50 to 500 | – | < 50 | > 3000 |
| CCS(=O)(=O)Nc1ccc(Oc2cccc(NCCOC3CCN(c4ncc(C(=O)N[C@H]5C(C)(C)[C@H](Oc6ccc(C#N)c(Cl)c6)C5(C)C)cn4)CC3)c2)c(-c2cn(C)c(=O)c3[nH]ccc23)c1 [Compound I-84] | < 50 | < 500 | < 50 | – |
| CCS(=O)(=O)Nc1ccc(Oc2cccc(OCCOC3CCN(c4ncc(C(=O)N[C@H]5C(C)(C)[C@H](Oc6ccc(C#N)c(Cl)c6)C5(C)C)cn4)CC3)n2)c(-c2cn(C)c(=O)c3[nH]ccc23)c1 [Compound I-47, N-((1r, 3r)-3-(3-chloro-4-cyanophenoxy)-2,2,4,4-tetra-methylcyclobutyl)-2-(4-(2-((6-(4-(ethylsulfonamido)-2-(6-methyl-7-oxo-6,7-dihydro-1H-pyrrolo[2,3-c]pyridin-4-yl)phenoxy)pyridin-2-yl)oxy)ethoxy)piperidin-1-yl)pyrimidine-5-carboxamide] | > 2500 | < 500 | < 50 | – |
| Cn1cc(-c2cc(C(C)(C)O)ccc2Oc2cccc(OCCC3CCN(c4ncc(C(=O)N[C@H]5C(C)(C)[C@H](Oc6ccc(C#N)c(Cl)c6)C5(C)C)cn4)CC3)c2F)c2cc[nH]c2c1=O [Compound I-142] | > 2500 | < 500 | 500 to 2500 | – |
| CCS(=O)(=O)Nc1ccc(Oc2cccc(COC3CCN(c4ncc(C(=O)N[C@H]5C(C)(C)[C@H](Oc6ccc(C#N)c(Cl)c6)C5(C)C)cn4)CC3)c2)c(-c2cn(C)c(=O)c3[nH]ccc23)c1 [Compound I-18, N-((1r, 3r)-3-(3-chloro-4-cyanophenoxy)-2,2,4,4-tetramethylcyclobutyl)-2-(4-((3-(4-(ethylsulfonamido)-2-(6-methyl-7-oxo-6,7-dihydro-1H-pyrrolo[2,3-c]pyridin-4-yl)phenoxy)benzyl)oxy)piperidin-1-yl)pyrimidine-5-carboxamide] | 500 to 2500 | < 500 | < 50 | – |
| CCS(=O)(=O)c1ccc(Oc2cccc(OCCOC3CCN(c4ccc(C(=O)N[C@H]5C(C)(C)[C@H](Oc6ccc(C#N)c(Cl)c6)C5(C)C)cn4)CC3)c2F)c(-c2cn(C)c(=O)c3[nH]ccc23)c1 [Compound I-185] | 50 to 500 | < 500 | < 50 | – |
| CN(CCCc1ccc(Oc2ccc(C(C)(C)O)cc2-c2cn(C)c(=O)c3[nH]ccc23)cc1)c1ncc(C(=O)N[C@H]2C(C)(C)[C@H](Oc3ccc(C#N)c(Cl)c3)C2(C)C)cn1 [Compound I-211] | > 2500 | < 500 | 50 to 500 | – |
| Cn1cc(-c2cc(C(C)(C)O)ccc2Oc2ccc(CCCC3CC4(C3)CN(c3ncc(C(=O)N[C@H]5C(C)(C)[C@H](Oc6ccc(C#N)c(Cl)c6)C5(C)C)cn3)C4)cc2)c2cc[nH]c2c1=O [Compound I-268] | – | < 500 | – | – |
| CCS(=O)(=O)N(C)c1ccc(Oc2cccc(N3CCN(C4CN(c5ncc(C(=O)N[C@H]6C(C)(C)[C@H](Oc7ccc(C#N)c(Cl)c7)C6(C)C)cn5)C4)CC3)c2)c(-c2cn(C)c(=O)c3[nH]ccc23)c1 [Compound I-118] | – | < 500 | – | – |
| Cn1cc(-c2cc(C(C)(C)O)ccc2Oc2ccc(N3CC(CC4CN(c5ncc(C(=O)N[C@H]6C(C)(C)[C@H](Oc7ccc(C#N)c(Cl)c7)C6(C)C)cn5)C4)C3)cc2)c2cc[nH]c2c1=O [Compound I-280] | – | < 500 | – | – |
| Cn1cc(-c2cc(N)ccc2Oc2cccc(OCCN3CCN(c4ncc(C(=O)N[C@H]5C(C)(C)[C@H](Oc6ccc(C#N)c(Cl)c6)C5(C)C)cn4)CC3)c2F)c2cc[nH]c2c1=O [Compound I-100] | – | < 500 | – | – |
| CCS(=O)(=O)c1ccc(Oc2cccc(OCCN3CCN(c4ncc5c(n4)CN([C@H]4C(C)(C)[C@H](Oc6ccc(C#N)c(Cl)c6)C4(C)C)C5=O)CC3)c2F)c(-c2cn(C)c(=O)c3[nH]ccc23)c1 [Compound I-217] | – | – | – | < 500 |
| Cn1cc(-c2cc(C(C)(C)O)ccc2Oc2ccc(OCC3CCN(c4ncc(C(=O)N[C@H]5C(C)(C)[C@H](Oc6ccc(C#N)c(Cl)c6)C5(C)C)cn4)CC3)cc2)c2cc[nH]c2c1=O [Compound I-202] | – | 500 to 1500 | – | – |
| CN(C1CCN(c2ncc(C(=O)N[C@H]3C(C)(C)[C@H](Oc4ccc(C#N)c(Cl)c4)C3(C)C)cn2)CC1)C1CN(c2ccc(Oc3ccc(C(C)(C)O)cc3-c3cn(C)c(=O)c4[nH]ccc34)cc2)C1 [Compound I-208] | – | 500 to 1500 | – | – |
| CCS(=O)(=O)Nc1ccc(Oc2cccc(CCOC3CCN(c4ncc(C(=O)N[C@H]5C(C)(C)[C@H](Oc6ccc(C#N)c(Cl)c6)C5(C)C)cn4)CC3)c2)c(-c2cn(C)c(=O)c3[nH]ccc23)c1 [Compound I-19] | – | < 500 | – | – |
| CCS(=O)(=O)Nc1ccc(Oc2cccc(OCCOC3CCN(c4ccc(C(=O)N[C@H]5C(C)(C)[C@H](Oc6ccc(C#N)c(Cl)c6)C5(C)C)cn4)CC3)c2)c(-c2cn(C)c(=O)c3[nH]ccc23)c1 [Compound I-70, N-((1r, 3r)-3-(3-chloro-4-cyanophenoxy)-2,2,4,4-tetramethylcyclobutyl)-6-(4-(2-(3-(4-(ethylsulfonamido)-2-(6-methyl-7-oxo-6,7-dihydro-1H-pyrrolo[2,3-c]pyridin-4-yl)phenoxy)phenoxy)ethoxy)piperidin-1-yl)nicotinamide] | – | < 500 | – | – |
| Cn1cc(-c2cc(C(C)(C)O)ccc2Oc2ccc(OCCN3CCN(c4ncc(C(=O)N[C@H]5C(C)(C)[C@H](Oc6ccc(C#N)c(Cl)c6)C5(C)C)cn4)CC3)cc2)c2cc[nH]c2c1=O [Compound I-204] | – | < 500 | – | – |
| Cn1cc(-c2cc(N)ccc2Oc2cccc(OCCC3CCN(c4ncc(C(=O)N[C@H]5C(C)(C)[C@H](Oc6ccc(C#N)c(Cl)c6)C5(C)C)cn4)CC3)c2)c2cc[nH]c2c1=O [Compound I-101] | – | < 500 | – | – |
| Cn1cc(-c2cc(N)ccc2Oc2cccc(N3CC(N4CCN(c5ncc(C(=O)N[C@H]6C(C)(C)[C@H](Oc7ccc(C#N)c(Cl)c7)C6(C)C)cn5)CC4)C3)c2F)c2cc[nH]c2c1=O [Compound I-93] | – | < 500 | – | – |
| CCS(=O)(=O)Nc1ccc(Oc2cccc(CCN3CC4CN(c5ncc(C(=O)N[C@H]6C(C)(C)[C@H](Oc7ccc(C#N)c(Cl)c7)C6(C)C)cn5)CC4C3)c2)c(-c2cn(C)c(=O)c3[nH]ccc23)c1 (stereo partly drawn) [Compound I-119] | – | < 500 | – | – |
| CN(C1CN(c2ccc(Oc3ccc(C(C)(C)O)cc3-c3cn(C)c(=O)c4[nH]ccc34)cc2)C1)C1CN(c2ncc(C(=O)N[C@H]3C(C)(C)[C@H](Oc4ccc(C#N)c(Cl)c4)C3(C)C)cn2)C1 [Compound I-238] | – | – | – | < 500 |
| Cn1cc(-c2cc(C(C)(C)O)ccc2Oc2ccc(N3CC(OC4CCN(c5ncc(C(=O)N[C@H]6C(C)(C)[C@H](Oc7ccc(C#N)c(Cl)c7)C6(C)C)cn5)CC4)C3)cc2)c2cc[nH]c2c1=O [Compound I-219] | – | < 500 | – | – |
